Results reported in PubChem BioAssay (NCI).
Several values for one entry are separate records, joined by “and”; a condition that tells them apart may be missing. Equal values may be shown once.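 Following 48 hours of exposure in 96-well plates, responses at five concentrations were used to interpolate endpoints linearly. Abbreviation: GI50, concentration required for 50% inhibition of growth. The concentration for full growth arrest is given as TGI.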

Experiments:
Experiment in all cases: growth of human tumour cells (NCI), 48 h
HCC-2998 colon = tested on: HCC-2998 colon
LOX IMVI melanoma = tested on: LOX IMVI melanoma
MDA-MB-231 breast = tested on: MDA-MB-231 breast
PC-3 prostate = tested on: PC-3 prostate
SF-268 CNS = tested on: SF-268 CNS
SF-295 CNS = tested on: SF-295 CNS
SF-539 CNS = tested on: SF-539 CNS
SK-MEL-5 melanoma = tested on: SK-MEL-5 melanoma
SN12C renal = tested on: SN12C renal
T-47D breast = tested on: T-47D breast

| SMILES | GI50 (HCC-2998 colon) | TGI (HCC-2998 colon) | GI50 (LOX IMVI melanoma) | TGI (LOX IMVI melanoma) | GI50 (MDA-MB-231 breast) [µM] | TGI (MDA-MB-231 breast) [µM] | GI50 (PC-3 prostate) | TGI (PC-3 prostate) | GI50 (SF-268 CNS) | TGI (SF-268 CNS) | GI50 (SF-295 CNS) [µM] | TGI (SF-295 CNS) [µM] | GI50 (SF-539 CNS) | TGI (SF-539 CNS) | GI50 (SK-MEL-5 melanoma) | TGI (SK-MEL-5 melanoma) [µM] | GI50 (SN12C renal) | TGI (SN12C renal) | GI50 (T-47D breast) | TGI (T-47D breast) |
| --- | --- | --- | --- | --- | --- | --- | --- | --- | --- | --- | --- | --- | --- | --- | --- | --- | --- | --- | --- | --- |
| C#CCN(Cc1nc2cc(C(F)(F)F)ccc2nc1-c1ccccc1)c1ccc(F)c(F)c1 | 44.8 µM | 96.9 µM | 42 µM | > 100 µM | 21.9 | > 100 | 37.6 µM | > 100 µM | 22.1 µM | > 100 µM | 39.7 | > 100 | 29.2 µM | > 100 µM | 19.1 µM | 46.2 | 46.2 µM | > 100 µM | 63.5 µM | > 100 µM |
| CCCn1c(N)c(C(=O)CNc2ccc(I)cc2)c(=O)[nH]c1=O | 4.23 µM | > 90.6 µM | 0.653 µM | > 100 µM | 24.5 | > 100 | 5.44 µM | > 100 µM | 4.55 µM | > 100 µM | 0.795 | > 63.6 | 0.84 µM | > 45.6 µM | 0.861 µM | > 100 | 29.2 µM | > 100 µM | > 100 µM | > 100 µM |
| Cc1sc2ncn(Cc3ccc(Cl)c(Cl)c3)c(=O)c2c1C | 7.39 µM | 30.1 µM | 25.8 µM | > 100 µM | 24.7 | 77.9 | 20.1 µM | > 100 µM | 25.5 µM | > 100 µM | 3.85 | 22.7 | 37 µM | > 100 µM | 54.4 µM | > 100 | 20.5 µM | > 100 µM | 24.8 µM | > 100 µM |
| COc1ccc(-c2c(N)n[nH]c2-c2cc(OC)c(OC)c(OC)c2)cc1 | 0.286 µM | 19.8 µM | 0.528 µM | > 100 µM | 0.56 | > 100 | 0.11 µM | > 100 µM | 0.676 µM | > 48.4 µM | 0.0758 | > 100 | 0.202 µM | 0.865 µM | 0.113 µM | 10 | 0.635 µM | > 100 µM | 25.3 µM | > 100 µM |
| CCOC(=O)c1ccccc1-c1c2ccc(=[N+](C)C)cc-2oc2cc(N(C)C)ccc12 | 0.35 µM | 13.9 µM | 0.388 µM | 4.41 µM | 0.301 | 10.7 | 0.0778 µM | 12.8 µM | 0.332 µM | 27.5 µM | 0.278 | 1.62 | 0.379 µM | 5.33 µM | 0.205 µM | 0.632 | 0.171 µM | 4.31 µM | 0.104 µM | 19.8 µM |
| CN(C)CCNc1nc2ccccc2c2c(=O)c3ccccc3sc12 | 1.74 µM | 3.46 µM | 1.37 µM | 2.8 µM | 1.34 | 3.64 | 1.84 µM | 4.13 µM | 2.1 µM | 8.82 µM | 1.76 | 4.03 | 1.78 µM | 3.58 µM | 1.58 µM | 3 | 2.13 µM | 8.85 µM | 4.91 µM | 22.9 µM |
| O=C(O)C(=O)CBr | > 100 µM and 19.3 µM | > 100 µM and 36.3 µM | > 44.4 µM and 17.3 µM | > 63.1 µM and 31.8 µM | > 100 | > 100 | > 51.6 µM and 19.5 µM | > 81.7 µM and 37.1 µM | > 85.2 µM and 18.3 µM | > 100 µM and 32.5 µM | > 100 | > 100 | > 41.1 µM and 16.8 µM | > 56.3 µM and 31.5 µM | > 100 µM and 65.8 µM | > 100 | > 46.2 µM and 19.1 µM | > 64 µM and 34.5 µM | > 100 µM and 25.5 µM | > 100 µM and 64.7 µM |
| CCOC(=S)SCN1C(=O)c2ccccc2S1(=O)=O | 16.2 µM | 29.8 µM | 17.1 µM | 31.9 µM | 19.3 | 40.9 | 33 µM | > 100 µM | 29.5 µM | > 100 µM | 18 | 59.2 | 24.7 µM | 58.5 µM | 11.4 µM | 24.4 | 21 µM | 46.6 µM | 24.2 µM | 80.5 µM |
| CN1CCN(CCOc2ccc(-c3cnc4c(-c5ccc(F)cc5)cnn4c3)cc2)CC1 | 1.77 µM | 3.45 µM | 1.76 µM | 3.25 µM | 1.57 | 3.07 | 1.7 µM | 3.82 µM | 2.03 µM | 5.31 µM | 1.73 | 3.23 | 1.27 µM | 2.57 µM | 1.64 µM | 3.04 | 1.69 µM | 3.23 µM | 1.49 µM | 3.86 µM |
| NS(=O)(=O)c1ccc(NC(=O)Nc2ccccc2F)cc1 |  | > 100 µM |  | > 100 µM |  | > 100 |  | > 100 µM |  | > 100 µM |  | > 100 |  | > 100 µM |  | > 100 |  | > 100 µM |  | > 100 µM |
| Nc1c(C(=O)Nc2cccc(Br)c2)sc2nc3c(cc12)C(O)CCC3 (stereo not given) | 1.61 µM | 50.2 µM | 0.726 µM | > 85.1 µM | 2.24 | > 85.7 | 0.349 µM | 24.4 µM | 0.682 µM | > 57.6 µM | 0.314 | 16.2 | 0.337 µM | 2.14 µM | 0.455 µM | > 45.4 | 0.636 µM | > 100 µM | 13.9 µM | > 100 µM |
| O=C(Nc1cc(-c2cccnc2)nc(NCCCN2CCOCC2)n1)c1cc(Br)cc(C(F)(F)F)c1 | 1.77 µM | 3.49 µM | 1.62 µM | 3.06 µM | 1.79 | 3.93 | 4.03 µM | 15.7 µM | 2.63 µM | 10.4 µM | 1.94 | 3.93 | 1.67 µM | 3.47 µM | 1.64 µM | 3.02 | 7.74 µM | 21.8 µM | 3.72 µM | 16.1 µM |
| Cc1nnc(-c2ccc(-c3nc4ccccc4o3)cc2)o1 | 78.8 µM | > 100 µM | > 100 µM | > 100 µM | 36.3 | > 100 | 34.7 µM | > 100 µM | 28.6 µM | 92.2 µM | 40.1 | > 100 | > 100 µM | > 100 µM | 21 µM | 65.3 | > 100 µM | > 100 µM | > 100 µM | > 100 µM |
